B1: IFN-γ: human IFN-γ used on HUVECs, 200 ng/ml (protein)
chain: QDPYVKEAENLKKYFNAGHSDVADNGTLFLGILKNWKEESDRKIMQSQIVSFYFKLFKNFKDDQSIQKSVETIKEDMNVKFFNSNKKKRDDFEKLTNYSVTDLNVQRKAIHELIQVMAELSPAAKTGKRKRSQMLFRGRRASQ

Columns and labels:
B16BI6 tumor = experiment: B16BI6 melanoma model, tumor growth; format: in vivo, mouse; settings: Example 5, alone or combined with birinapant
Source text: FIG. 2A is a graph showing the change in B16BI6 tumor size in B16 mice treated with PBS, CD8-targeted chimeric protein (CD8-Actaferon) alone, BcII10 targeted mutated murine TNF (Y114L) alone, or CD8-targeted chimeric protein (CD8-Actaferon) and BcII10 targeted mutated murine TNF (Y114L). FIG. 2B is a graph showing the change in B16BI6 tumor size in B16 mice treated with PBS, CD8-targeted chimeric protein (CD8-Actaferon) alone, CD13 targeted mutated murine TNF (Y114L) alone, or CD8-targeted chimeric protein (CD8-Actaferon) and CD13 targeted mutated murine TNF (Y114L). […] Tumor growth is shown as mean TSI+SEM (n=6 per group). The line under the graph represents the treatment period. […] Error bars are SEM. ***, p<0.001 by one-way ANOVA with Bonferroni's multiple comparison test. […]
FIG. 7A: Toxicity of wt sc mTNF and mutant Y86F after injection (T) in naïve C56BU6 mice. […] FIG. 7B: Plasma IL-6 concentrations measured via ELISA. […]
FIG. 8A and 8B: B16BI6 tumor growth after daily p.1. treatment with 7 μg mTNF, 30 μg hTNF alone or in combination with 10000 IU mIFN-γ in wt C57BL/6 mice (a) or homozygous Flk1 dnIFN-γR transgenic mice. […] FIG. 8C: IL-8 concentration in HUVEC supernatant after 24 h stimulation with the indicated concentration of sc hTNF mutant Y87F (Y87F), hCD13-AFR or wt hTNF, alone or in combination with 200 ng/ml hIFN-γ, measured via ELISA. […]

HUVEC = experiment: IL-8 secretion by HUVECs (ELISA of supernatant); format: cell-based, human; settings: 24 h stimulation, 200 ng/ml hIFN-γ where used
Procedure: FIG. 8A and 8B: B16BI6 tumor growth after daily p.1. treatment with 7 μg mTNF, 30 μg hTNF alone or in combination with 10000 IU mIFN-γ in wt C57BL/6 mice (a) or homozygous Flk1 dnIFN-γR transgenic mice. The line under the graph represents the treatment period. Tumor growth is depicted as mean TSI, error bars are SEM (n=5 per group). FIG. 8C: IL-8 concentration in HUVEC supernatant after 24 h stimulation with the indicated concentration of sc hTNF mutant Y87F (Y87F), hCD13-AFR or wt hTNF, alone or in combination with 200 ng/ml hIFN-γ, measured via ELISA. Error bars are SEM. ns, non-significant; p<0.01; ***, p<0.001 by one-way ANOVA with Bonferroni's multiple comparison test. FIG. 8D: Schematic representation of AFN-II, consisting of a VHH fused via a 20×GGS linker to an engineered IFN-γ (e-IFN-γ) variant and N-terminal affinity tag. FIG. 8E: Viability of B16BI6 parental or mCD20-expressing cells after 72 h stimulation with wt mIFN-γ or de18 mutant fused to a BcII10 or mCD20 VHH, in the presence of 60 ng/ml mTNF. Cell viability was measured via an ATP luminescence assay. Each point is the mean of three replicates and error bars are SEM.
It was also tested whether IFN-γ could sensitize HUVECs to TNF, using either wtTNF or hCD13-AFR.

Molecule	Tumor growth (FIG. 5A) (B16BI6 tumor)	IL-8 secretion by HUVECs (HUVEC)
CC[C@H](NC(=O)[C@H](C)NC)C(=O)N1C[C@@H](O)C[C@H]1Cc1c(-c2[nH]c3cc(F)ccc3c2C[C@@H]2C[C@H](O)CN2C(=O)[C@H](CC)NC(=O)[C@H](C)NC)[nH]c2cc(F)ccc12 [birinapant]	very little effect on tumor growth	–
B1	–	no effect on IL-8 secretion

Reference: patent US12544426B2, “Combination therapy with CD13-targeted chimeric proteins or chimeric protein complexes” (Orionis Biosciences, Inc., priority 2019, dated 2026)
